pIC50: −log10 of the molar value. Where a name gives a salt, the structure may show the parent alone.
Tests used:
[1] = molecular target: Cbl-b (Homo sapiens (Human), UniProt Q13191); experiment: Cbl-b LCK Ub TR-FRET assay (Cbl-b Lck HTRF); type: biochemical
Protocol: Compounds were 3-fold serially diluted in DMSO in a 384-well polypropylene plate (#P-05525-BC; Labcyte) to generate a source plate with 10 concentrations of each compound, top concentration=2 mM. 80 nL of DMSO or compounds were transferred to each well of a black 384-well ProxiPlate (#6008260; PerkinElmer) using a Labcyte Echo. 1×assay buffer (50 mM HEPES pH7.0, 100 mM NaCl, 0.01% BSA, 0.01% Triton-X100, 1 mM DTT), 2×enzyme solution (16 nM Biotin-Cbl-b or 12 nM Biotin-c-Cbl in 1× assay buffer), 2×kinase mixture (120 nM His-LCK, 1 mM ATP, 10 mM MgCl2 in assay buffer) and 2.33×detection mixture (4.66×solution 1: 163 nM Anti-HA-D2 antibody (#610HADAB; PerkinElmer), 27.96 nM Streptavidin-EU (#AD0062; PerkinElmer), 1.398 mM EDTA in 1×assay buffer+4.66×solution 2: 2.796 μM UBE2D2/Methylated-HA-Ubiquitin thioester adduct (BostonBiochem) in 1×assay buffer) were prepared. 4 μL of 2× enzyme solution was added to each well containing compound, briefly centrifuged to mix, and incubated for 60 min at room temperature. 4 μL of 2× kinase mixture was added, briefly centrifuged to mix, and incubated for 90 min. at room temperature. 6 μL of detection mixture was added to all wells and briefly centrifuged before incubating for 20 min at room temperature. Plates were read for TR-FRET using an Envision at excitation 340 nm, emission at 615 and 665 nm, 4 flashes per well. IC50 was generated using no LCK as the low control and DMSO as the high control.
Cbl-b Lck HTRF data in Table 7 is measured according to Example 76 herein; C-cbl Lck HTRF data is measured according to Example 76 herein.

[2] = molecular target: c-Cbl (Homo sapiens (Human), UniProt P22681); experiment: C-Cbl LCK Ub TR-FRET assay (c-cbl Lck HTRF); type: biochemical; details: for (fold-selectivity): C-cbl Lck HTRF IC50 relative to Cbl-b Lck HTRF IC50
Protocol: 6 μL of detection mixture was added to all wells and briefly centrifuged before incubating for 20 min at room temperature. […] IC50 was generated using no LCK as the low control and DMSO as the high control.

c-Cbl, sequence (P22681 47-435): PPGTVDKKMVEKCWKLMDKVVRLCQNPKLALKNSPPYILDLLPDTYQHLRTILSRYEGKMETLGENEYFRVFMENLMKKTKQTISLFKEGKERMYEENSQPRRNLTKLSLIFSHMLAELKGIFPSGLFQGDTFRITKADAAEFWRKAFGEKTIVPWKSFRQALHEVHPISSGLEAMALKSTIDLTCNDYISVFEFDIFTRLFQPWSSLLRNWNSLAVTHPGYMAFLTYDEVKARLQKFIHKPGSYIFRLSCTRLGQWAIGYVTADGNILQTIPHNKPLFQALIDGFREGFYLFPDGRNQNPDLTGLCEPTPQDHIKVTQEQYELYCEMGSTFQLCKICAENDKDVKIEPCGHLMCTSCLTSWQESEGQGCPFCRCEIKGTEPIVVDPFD
Cbl-b, sequence (Q13191 40-426): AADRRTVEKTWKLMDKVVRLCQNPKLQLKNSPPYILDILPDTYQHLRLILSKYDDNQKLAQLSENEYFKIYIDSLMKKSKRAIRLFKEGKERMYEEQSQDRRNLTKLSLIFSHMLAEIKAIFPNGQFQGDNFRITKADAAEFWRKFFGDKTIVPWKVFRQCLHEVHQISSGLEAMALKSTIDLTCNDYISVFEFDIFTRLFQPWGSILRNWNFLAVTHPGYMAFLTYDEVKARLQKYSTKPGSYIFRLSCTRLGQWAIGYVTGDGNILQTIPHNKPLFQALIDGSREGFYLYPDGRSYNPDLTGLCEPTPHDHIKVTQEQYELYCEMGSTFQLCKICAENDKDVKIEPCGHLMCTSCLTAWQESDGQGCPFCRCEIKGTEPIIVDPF

SMILES | pIC50 [1] | pIC50 [2] | (fold-selectivity) [2]
CC1(NCc2cc3c(c(C(F)(F)F)c2)CN(c2cccc(C4(Cc5nncn5C5CC5)CC(F)(F)C4)c2)C3=O)CCC1 [Compound 492, 2-(3-(1-((4-cyclopropyl-4H-1,2,4-triazol-3-yl)methyl)-3,3-difluorocyclobutyl)phenyl)-6-(((1-methylcyclobutyl)amino)methyl)-4-(trifluoromethyl)isoindolin-1-one] | 7.24 | 7.22 | (1.0x)
CC(C)Oc1cccc2c1CN(c1cccc(C3([C@@H](F)c4nncn4C)COC3)c1)C2=O [Compound 207, (R)-2-(3-(3-(fluoro(4-methyl-4H-1,2,4-triazol-3-yl)methyl)oxetan-3-yl)phenyl)-4-isopropoxyisoindolin-1-one] | 5.35 | 4.89 | 2.8x
CC(C)CNc1cc(C2(Cc3nncn3C)CCC2)cc(N2Cc3c(cc(CNC4(C)CCC4)cc3C(F)(F)F)C2=O)n1 [Compound 348, 2-(6-(isobutylamino)-4-(1-((4-methyl-4H-1,2,4-triazol-3-yl)methyl)cyclobutyl)pyridin-2-yl)-6-(((1-methylcyclobutyl)amino)methyl)-4-(trifluoromethyl)isoindolin-1-one] | 7.89 | 7.89 | (1.0x)
CCc1cccc2c1CN(c1cccc(C3([C@@H](F)c4nncn4C)COC3)c1)C2=O [Compound 209] | 5.96 | 5.72 | 1.7x
C[C@H](c1cc2c(c(C(F)(F)F)c1)CN(c1cccc(C3([C@H](F)c4nncn4C)COC3)c1)C2=O)N1CC(C)(F)C1 [Compound 111, 2-(3-(3-((S)-fluoro(4-methyl-4H-1,2,4-triazol-3-yl)methyl)oxetan-3-yl)phenyl)-6-((R)-1-(3-fluoro-3-methylazetidin-1-yl)ethyl)-4-(trifluoromethyl)isoindolin-1-one] | 6.72 | 6.47 | 1.8x
CC(C)Nc1cc(N2Cc3c(cc(CN4CCN(C)C[C@@H]4C(C)C)cc3C(F)(F)F)C2=O)cc(C2(Cc3nncn3C)CCC2)c1 [Compound 408, (S)-6-((2-isopropyl-4-methylpiperazin-1-yl)methyl)-2-(3-(isopropylamino)-5-(1-((4-methyl-4H-1,2,4-triazol-3-yl)methyl)cyclobutyl)phenyl)-4-(trifluoromethyl)isoindolin-1-one] | 7.89 | 8.04 | (0.68x)
COC(C)(C)CNCc1cc2c(c(C(F)(F)F)c1)CN(c1cccc(C3(Cc4nncn4C)CC(F)(F)C3)c1)C2=O [Compound 373, 2-(3-(3,3-difluoro-1-((4-methy-4H-1,2,4-triazol-3-yl)methyl)cyclobutyl)phenyl)-6-(((2-methoxy-2-methylpropyl)amino)methyl)-4-(trifluoromethyl)isoindolin-1-one] | 7.70 | 7.60 | (1.3x)
Cn1cnnc1CC1(c2cccc(N3Cc4c(cc(CN5CC[C@@H](CCl)C5)cc4C(F)(F)F)C3=O)c2)COC1 [Compound 101, (R)-6-((3-(chloromethyl)pyrrolidin-1-yl)methyl)-2-(3-(3-((4-methyl-4H-1,2,4-triazol-3-yl)methyl)oxetan-3-yl)phenyl)-4-(trifluoromethyl)isoindolin-1-one] | 7.74 | 7.64 | 1.2x
Cn1cnnc1[C@@H](F)C1(c2cccc(N3Cc4c(cc(CN5CC(C)(O)C5)cc4C(F)(F)F)C3=O)c2)COC1 [Compound 162, (S)-2-(3-(3-(fluoro(4-methyl-4H-1,2,4-triazol-3-yl)methyl)oxetan-3-yl)phenyl)-6-((3-hydroxy-3-methylazetidin-1-yl)methyl)-4-(trifluoromethyl)isoindolin-1-one] | 6.72 | 6.48 | 1.7x
CC(C)[C@H]1CN(C)CCN1Cc1cc2c(c(C(F)(F)F)c1)CN(c1cccc(C3(Cc4nncn4C)CC(F)(F)C3)c1)C2=O [Compound 215, (S)-2-(3-(3,3-difluoro-1-((4-methyl-4H-1,2,4-triazol-3-yl)methyl)cyclobutyl)phenyl)-6-((2-isopropyl-4-methylpiperazin-1-yl)methyl)-4-(trifluoromethyl)isoindolin-1-one] | 8.12 | 8.30 | 0.66x
Cn1cnnc1[C@H](F)C1(c2cccc(N3Cc4c(cc(CN5CC(C)(O)C5)cc4C(F)(F)F)C3=O)c2)COC1 [Compound 161, (R)-2-(3-(3-(fluoro(4-methyl-4H-1,2,4-triazol-3-yl)methyl)oxetan-3-yl)phenyl)-6-((3-hydroxy-3-methylazetidin-1-yl)methyl)-4-(trifluoromethyl)isoindolin-1-one] | 7.21 | 6.96 | 1.7x
CC(C)[C@H]1CN(C)CCN1Cc1cc2c(c(C(F)(F)F)c1)CN(c1cc(C3(Cc4nncn4C)COC3)cc(OC3CCCC3)n1)C2=O [Compound 293, (S)-2-(6-(cyclopentyloxy)-4-(3-((4-methyl-4H-1,2,4-triazol-3-yl)methyl)oxetan-3-yl)pyridin-2-yl)-6-((2-isopropyl-4-methylpiperazin-1-yl)methyl)-4-(trifluoromethyl)isoindolin-1-one] | 8.26 | 8.11 | (1.4x)
CCOc1cc(C2(Cc3nncn3C)CCC2)cc(N2Cc3c(cc(CNC4(C)CCC4)cc3C(F)(F)F)C2=O)n1 [Compound 359, 2-(6-ethoxy-4-(1-((4-methyl-4H-1,2,4-triazol-3-yl)methyl)cyclobutyl)pyridin-2-yl)-6-(((1-methylcyclobutyl)amino)methyl)-4-(trifluoromethyl)isoindolin-1-one] | 7.96 | 8.28 | (0.71x)
Cn1cnnc1CC1(c2cccc(N3Cc4c(cc(CNC5(C)CCCC5)cc4C(F)(F)F)C3=O)c2)CC(F)(F)C1 [Compound 344, 2-(3-(3,3-difluoro-1-((4-methyl-4H-1,2,4-triazol-3-yl)methyl)cyclobutyl)phenyl)-6-(((1-methylcyclopentyl)amino)methyl)-4-(trifluoromethyl)isoindolin-1-one formate] | 7.80 | 7.89 | –
CN1CCN(Cc2cc3c(c(C(F)(F)F)c2)CN(c2cccc(C4(Cc5nncn5C)CC(F)(F)C4)c2)C3=O)C(C(F)(F)F)C1 (centres unmarked) [Compound 374, 2-(3-(3,3-difluoro-1-((4-methyl-4H-1,2,4-triazol-3-yl)methyl)cyclobutyl)phenyl)-6-((4-methyl-2-(trifluoromethyl)piperazin-1-yl)methyl)-4-(trifluoromethyl)isoindolin-1-one] | 7.00 | 7.00 | (1.0x)
CC1CC(C)(NCc2cc3c(c(C(F)(F)F)c2)CN(c2cccc(C4(Cc5nncn5C)CC(F)(F)C4)c2)C3=O)C1 (centres unmarked) [Compound 353, 2-(3-(3,3-difluoro-1-((4-methyl-4H-1,2,4-triazol-3-yl)methyl)cyclobutyl)phenyl)-6-(((1,3-dimethylcyclobutyl)amino)methyl)-4-(trifluoromethyl)isoindolin-1-one formate] | 7.92 | 8.18 | –
Cn1cnnc1[C@H](F)C1(c2cccc(N3Cc4c(Cl)cc(CNC5(C)CCC5)cc4C3=O)c2)COC1 [Compound 470, (R)-4-chloro-2-(3-(3-(fluoro(4-methyl-4H-1,2,4-triazol-3-yl)methyl)oxetan-3-yl)phenyl)-6-(((1-methylcyclobutyl)amino)methyl) isoindolin-1-one] | – | – | (0.70x)
Cn1cnnc1[C@@H](F)[C@](C)(F)c1cccc(N2Cc3c(cc(CN4CCC5(CC5)C4)cc3C(F)(F)F)C2=O)c1 [Compound 129, 6-(5-azaspiro[2.4]heptan-5-ylmethyl)-2-(3-((1R,2R)-1,2-difluoro-1-(4-methyl-4H-1,2,4-triazol-3-yl)propan-2-yl)phenyl)-4-(trifluoromethyl)isoindolin-1-one] | – | – | 3.6x
Cn1cnnc1[C@H](F)[C@@](C)(F)c1cccc(N2Cc3c(cc(CN4CCC5(CC5)C4)cc3C(F)(F)F)C2=O)c1 [Compound 128, 6-(5-azaspiro[2.4]heptan-5-ylmethyl)-2-(3-((1S,2S)-1,2-difluoro-1-(4-methyl-4H-1,2,4-triazol-3-yl)propan-2-yl)phenyl)-4-(trifluoromethyl)isoindolin-1-one] | – | – | 3.4x
Cn1cnnc1[C@@H](F)[C@@](C)(F)c1cccc(N2Cc3c(cc(CN4CCC5(CC5)C4)cc3C(F)(F)F)C2=O)c1 [Compound 130, 6-(5-azaspiro[2.4]heptan-5-ylmethyl)-2-(3-((1R,2S)-1,2-difluoro-1-(4-methyl-4H-1,2,4-triazol-3-yl)propan-2-yl)phenyl)-4-(trifluoromethyl)isoindolin-1-one] | – | – | 3.3x

— patent publication US20250230147A1, “LACTAMS AS CBL-B INHIBITORS” (Genentech, Inc., priority 2021, published 2025)
